In US11407745B2, “Indazole derivatives and pharmaceutical composition for preventing, alleviating or treating cancer containing the same” (KOREA INSTITUTE OF SCIENCE AND TECHNOLOGY, priority 2019, dated 2022):
Like-named read-outs stand apart in the source and are kept apart here. One block for each compound: values may come before it.

Columns and labels:
[1] = molecular target: T1, ABL^T315I (Homo sapiens, UniProt P00519, T315I); conditions: positive controls, values in the references; cited from earlier work
[2] = molecular target: T2, ABL^wild (Homo sapiens, UniProt P00519); conditions: positive controls, values in the references; cited from earlier work
[3] = tested on: K-562 (human leukemia cancer) cells; conditions: positive controls, values in the references; read-out: GI50, μm K562; cited from earlier work
[4] = molecular target: T1, ABL^T315I; assay: Hot Spot kinase assay, ABL T315I; type: biochemical; conditions: for IC50: ATP 10 μM, 25° C., 120 minutes
Description: (§1) Kinase analysis was conducted in a “Hot Spot” analysis platform manner. Specific kinase/substrate pairs and cofactors were prepared in a reaction buffer (20 mM HEPES (pH 7.5), 10 mM MgCl2, 1 mM EGTA, 0.02% Brij35, 0.02 mg/ml BSA, 0.1 mM Na3VO4, 2 mM DTT and 1% DMSO). 10 concentrations of compounds that were serially diluted 3 times in sequence from a concentration of 20 μM were added to the reaction mixture, and a mixture of ATP (10 μM, Sigma) and 33P ATP (Perkin Elmer) was added thereto after 20 minutes.

[5] = molecular target: DDR1 (Homo sapiens, UniProt Q08345); assay: Hot Spot kinase assay, DDR1; type: biochemical; conditions: for IC50: ATP 10 μM, 25° C., 120 minutes
Description: The kinase inhibitory effect of the compounds of Compound Nos. 1 to 16 was measured. Kinase analysis was conducted in a “Hot Spot” analysis platform manner. Specific kinase/substrate pairs and cofactors were prepared in a reaction buffer (20 mM HEPES (pH 7.5), 10 mM MgCl2, 1 mM EGTA, 0.02% Brij35, 0.02 mg/ml BSA, 0.1 mM Na3VO4, 2 mM DTT and 1% DMSO). 10 concentrations of compounds that were serially diluted 3 times in sequence from a concentration of 20 μM were added to the reaction mixture, and a mixture of ATP (10 μM, Sigma) and 33P ATP (Perkin Elmer) was added thereto after 20 minutes. The reaction was conducted at 25° C. for 120 minutes, the spots during the reaction were filtered using P81 ion exchange filter paper (Whatman #3698-915), and the unbound phosphate was removed by washing with 0.1% phosphoric acid using a filter.

[6] = molecular target: T2, ABL^wild; assay: Hot Spot kinase assay, ABL wild type; type: biochemical; conditions: for IC50: ATP 10 μM, 25° C., 120 minutes
Description: as §1

[7] = tested on: K-562 (human leukemia cancer) cells; assay: MTT assay, anti-proliferative effect on K-562; type: cell-based; conditions: for GI50: Homo sapiens, MTT; for fold higher inhibitory effect than imatinib (K-562 GI50): versus imatinib positive control; for fold higher inhibitory effect than nilotinib (K-562 GI50): versus nilotinib
Description: The cell line used for an MTT assay was K-562 (human leukemia cancer), and was obtained from the Korea Cell Line Bank and then cultured. The medium herein used was RPMI 1640 medium containing 10% fetal bovine serum, and the culture was conducted in a constant-temperature constant-humidity incubator (37° C., 5% CO2). The cells were seeded at a density of 3×10^3 cells/well in a 96-well microplate and cultured in a CO2 incubator for 24 hours, the medium was removed, and further culture was performed for 72 hours in 100 μl of respective inhibitor solutions diluted to different concentrations. 15 μl of an MTT solution (Promega, CellTiter 96) was added thereto and cultured for 4 hours. Then, blue formazan, formed by adding 100 μl of a stop solution (Promega, CellTiter 96), was dissolved.
After the culture solution was allowed to stand for 18 hours or more, absorbance was measured at 570 nm to obtain IC50 (a concentration at which 50% of cancer cells are inhibited).

[8] = tested on: CML patients; conditions: primary therapeutic agent for CML patients; cited from earlier work
[9] = tested on: patients; conditions: patients administered with ponatinib; cited from earlier work
[10] = K562, 72 hours treatment, read-out: GI50, μm K562
[11] = K562, 72 hours, read-out: GI50 against K-562 cancer cells

Chain of DDR1 (Q08345 19-913): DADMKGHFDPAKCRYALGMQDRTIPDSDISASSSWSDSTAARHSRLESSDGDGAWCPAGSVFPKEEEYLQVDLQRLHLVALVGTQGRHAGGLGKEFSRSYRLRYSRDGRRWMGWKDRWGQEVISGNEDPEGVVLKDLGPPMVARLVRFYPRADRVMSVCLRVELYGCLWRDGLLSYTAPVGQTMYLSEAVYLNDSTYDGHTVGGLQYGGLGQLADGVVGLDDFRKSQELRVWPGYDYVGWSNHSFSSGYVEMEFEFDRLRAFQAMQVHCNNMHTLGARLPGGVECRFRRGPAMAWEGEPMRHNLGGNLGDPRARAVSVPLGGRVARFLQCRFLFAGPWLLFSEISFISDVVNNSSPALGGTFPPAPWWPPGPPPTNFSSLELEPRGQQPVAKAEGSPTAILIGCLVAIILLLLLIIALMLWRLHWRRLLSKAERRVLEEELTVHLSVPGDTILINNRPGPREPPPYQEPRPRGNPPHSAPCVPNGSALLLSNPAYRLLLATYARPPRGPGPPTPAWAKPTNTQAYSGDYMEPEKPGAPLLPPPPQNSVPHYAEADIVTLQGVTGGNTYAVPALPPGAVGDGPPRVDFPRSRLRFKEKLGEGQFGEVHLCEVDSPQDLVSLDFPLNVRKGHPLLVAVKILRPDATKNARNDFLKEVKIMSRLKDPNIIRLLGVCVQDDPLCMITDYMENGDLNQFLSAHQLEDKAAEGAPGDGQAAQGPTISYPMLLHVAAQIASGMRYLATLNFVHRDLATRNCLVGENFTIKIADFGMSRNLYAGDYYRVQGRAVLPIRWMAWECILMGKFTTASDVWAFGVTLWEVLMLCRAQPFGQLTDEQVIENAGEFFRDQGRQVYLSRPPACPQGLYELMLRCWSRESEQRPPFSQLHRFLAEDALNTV

Structure (SMILES): Nc1n[nH]c2cccc(-c3ccc(C(=O)N4CCN(C(=O)c5ccc(Cl)cc5Cl)CC4)cc3)c12 [(4-(4-(3-amino-1H-indazol-4-yl)benzoyl)piperazin-1-yl)(2,4-dichlorophenyl)methanone]
IC50 [1]: 450 nM | IC50 [2]: 14 nM | GI50 [3]: 6500 nM

Structure (SMILES): Nc1n[nH]c2cccc(C#Cc3cccc(NC(=O)c4cccc(C(F)(F)F)c4)c3)c12 [Compound No. 1, N-(3-((3-Amino-1H-indazol-4-yl)ethynyl)phenyl)-3-(trifluoromethyl)benzamide]
IC50 [4]: 2550 nM | IC50 [5]: 53.3 nM | IC50 [6]: 313 nM | GI50 [7, 10]: 1450 ± 1160 nM

IC50 [5]: 96.5 nM | IC50 [6]: 667 nM
Structure (SMILES): Nc1n[nH]c2cccc(C#Cc3cccc(NC(=O)c4cc(C(F)(F)F)cc(C(F)(F)F)c4)c3)c12 [Compound No. 2, 4N-(3-((3-Amino-1H-indazol-4-yl)ethynyl)phenyl)-3,5-bis (trifluoromethyl)benzamide]

Structure (SMILES): Cc1cn(-c2cc(C(=O)Nc3cccc(C#Cc4cccc5[nH]nc(N)c45)c3)cc(C(F)(F)F)c2)cn1 [Compound No. 3]
IC50 [4]: 1290 nM | IC50 [5]: 13.1 nM | IC50 [6]: 17.1 nM | GI50 [7, 10]: 120 nM

Structure (SMILES): Nc1n[nH]c2cccc(C#Cc3cccc(NC(=O)c4cc(F)cc(C(F)(F)F)c4)c3)c12 [Compound No. 4, N-(3-((3-Amino-1H-indazol-4-yl)ethynyl)phenyl)-3-fluoro-5-(trifluoromethyl)benzamide]
IC50 [5]: 82.8 nM | IC50 [6]: 172 nM | GI50 [7, 10]: 2100 ± 1110 nM

Structure (SMILES): Nc1n[nH]c2cccc(C#Cc3cccc(NC(=O)c4cc(N5CCOCC5)cc(C(F)(F)F)c4)c3)c12 [Compound No. 5, N-(3-((3-Amino-1H-indazol-4-yl)ethynyl)phenyl)-3-morpholino-5-(trifluoromethyl)benzamide]
IC50 [5]: 20.1 nM | IC50 [6]: 637 nM | GI50 [7, 10]: 2140 ± 1150 nM

Structure (SMILES): Cc1ccc(C(=O)Nc2cccc(C#Cc3cccc4[nH]nc(N)c34)c2)cc1C(F)(F)F [Compound No. 6, N-(3-((3-Amino-1H-indazol-4-yl)ethynyl)phenyl)-4-methyl-3-(trifluoromethyl)benzamide]
IC50 [4]: 2960 nM | IC50 [5]: 22.6 nM | IC50 [6]: 104 nM | GI50 [7, 10]: 1620 ± 1240 nM

IC50 [5]: 31.9 nM
Structure (SMILES): CN1CCN(c2ccc(C(=O)Nc3cccc(C#Cc4cccc5[nH]nc(N)c45)c3)cc2C(F)(F)F)CC1 [Compound No. 7, N-(3-((3-Amino-1H-indazol-4-yl)ethynyl)phenyl)-4-(4-methylpiperazin-1-yl)-3-(trifluoromethyl)benzamide]

Structure (SMILES): Nc1n[nH]c2cccc(C#Cc3cccc(NC(=O)c4ccc(N5CCOCC5)c(C(F)(F)F)c4)c3)c12 [Compound No. 8]
inhibitory activity against the T315I point mutation of ABL (in words) [4]: exhibited inhibitory activity | IC50 [4]: 183 nM | inhibitory activity against DDR1 (in words) [5]: excellent inhibitory activity | IC50 [5]: 14.7 nM | inhibitory activity against ABL (in words) [6]: excellent inhibitory activity | IC50 [6]: 5.21 nM | proliferation inhibitory effect on K-562 cancer cells (in words) [7]: excellent anti-proliferative activity | GI50 [7, 11]: 20 nM | fold higher inhibitory effect than imatinib (K-562 GI50) [7]: 13 fold | fold higher inhibitory effect than nilotinib (K-562 GI50) [7]: 4 fold

Structure (SMILES): Nc1n[nH]c2cccc(C#Cc3cccc(C(=O)Nc4cccc(C(F)(F)F)c4)c3)c12 [Compound No. 9]
IC50 [5]: 18.4 nM | IC50 [6]: 210 nM | GI50 [7, 10]: 3750 ± 1220 nM

Structure (SMILES): Nc1n[nH]c2cccc(C#Cc3cccc(C(=O)Nc4cc(C(F)(F)F)cc(C(F)(F)F)c4)c3)c12 [Compound No. 10, 3-((3-Amino-1H-indazol-4-yl)ethynyl)-N-(3,5-bis(trifluoromethyl)phenyl)benzamide]
IC50 [5]: 33 nM | IC50 [6]: 186 nM | GI50 [7, 10]: 460 ± 1340 nM

Structure (SMILES): Cc1cn(-c2cc(NC(=O)c3cccc(C#Cc4cccc5[nH]nc(N)c45)c3)cc(C(F)(F)F)c2)cn1 [Compound No. 11, 3-((3-Amino-1H-indazol-4-yl)ethynyl)-N-(3-(4-methyl-1H-imidazol-1-yl)-5-(trifluoromethyl)phenyl)benzamide]
IC50 [4]: 1060 nM | IC50 [5]: 21 nM | IC50 [6]: 15.4 nM | GI50 [7, 10]: 140 nM

Structure (SMILES): CN1CCN(Cc2cc(NC(=O)c3cccc(C#Cc4cccc5[nH]nc(N)c45)c3)cc(C(F)(F)F)c2)CC1 [Compound No. 12]
IC50 [4]: 1150 nM | IC50 [5]: 29.1 nM | IC50 [6]: 60.5 nM | GI50 [7, 10]: 290 nM

Structure (SMILES): Nc1n[nH]c2cccc(C#Cc3cccc(C(=O)Nc4ccc(Cl)c(C(F)(F)F)c4)c3)c12 [Compound No. 14, 3-((3-Amino-1H-indazol-4-yl)ethynyl)-N-(4-chloro-3-(trifluoromethyl)phenyl)benzamide]
IC50 [5]: 20 nM | IC50 [6]: 255 nM | GI50 [7, 10]: 3330 ± 1180 nM

Structure (SMILES): CCN1CCN(Cc2ccc(NC(=O)c3cccc(C#Cc4cccc5[nH]nc(N)c45)c3)cc2C(F)(F)F)CC1 [Compound No. 15, 3-((3-Amino-1H-indazol-4-yl)ethynyl)-N-(4-((4-ethylpiperazin-1-yl)methyl)-3-(trifluoromethyl)phenyl)benzamide]
inhibitory activity against the T315I point mutation of ABL (in words) [4]: excellent inhibitory activity | IC50 [4]: 5.82 nM | inhibitory activity against DDR1 (in words) [5]: excellent inhibitory activity | IC50 [5]: 3.7 nM | inhibitory activity against ABL (in words) [6]: excellent inhibitory activity | IC50 [6]: 0.625 nM | proliferation inhibitory effect on K-562 cancer cells (in words) [7]: excellent anti-proliferative activity | GI50 [7, 11]: 30 nM | GI50 [7, 10]: 30 nM | fold higher inhibitory effect than imatinib (K-562 GI50) [7]: 8.9 fold | fold higher inhibitory effect than nilotinib (K-562 GI50) [7]: 2.7 fold

Structure (SMILES): Nc1n[nH]c2cccc(C#Cc3cccc(C(=O)Nc4ccc(CN5CCOCC5)c(C(F)(F)F)c4)c3)c12 [Compound No. 16]
IC50 [4]: 1360 nM | IC50 [5]: 16.3 nM | IC50 [6]: 103 nM | GI50 [7, 10]: 520 ± 1250 nM

Structure (SMILES): Cc1ccc(NC(=O)c2ccc(CN3CCN(C)CC3)cc2)cc1Nc1nccc(-c2cccnc2)n1 [Imatinib]
share of patients in whom effective [8]: 67% | GI50 [3]: 267 ± 30 nM

Structure (SMILES): Cc1cn(-c2cc(NC(=O)c3ccc(C)c(Nc4nccc(-c5cccnc5)n4)c3)cc(C(F)(F)F)c2)cn1 [Nilotinib]
GI50 [3]: 80 ± 90 nM

Structure (SMILES): Cc1ccc(C(=O)Nc2ccc(CN3CCN(C)CC3)c(C(F)(F)F)c2)cc1C#Cc1cnc2cccnn12 [Ponatinib]
share of patients with side effects such as thrombosis or narrowing of blood vessel walls [9]: 20%
